Laboratory results published in patent US20060276393A1, “Novel compositions for preventing and treating neurodegenerative and blood coagulation disorders” (Sirtris Pharmaceuticals, Inc., priority 2005, published 2006).
Where “and” joins values, the source holds several entries; their conditions need not be identical. Identical values can stand only once. Entries after “also recorded” stand apart in the source; their conditions may differ.

Legend:
[1] = biological target: T1, recombinant human SIRT1 (Homo sapiens, UniProt Q96EB6); experiment: SIRT1 fluorescent deacetylation assay (p53-382 acetylated peptide); assay type: biochemical; conditions: for SIRT1 stimulating activity (in words): 25 μM NAD+, 25 μM p53-382 acetylated peptide, compounds at 100 μM
T1 sequence (Q96EB6 1-747): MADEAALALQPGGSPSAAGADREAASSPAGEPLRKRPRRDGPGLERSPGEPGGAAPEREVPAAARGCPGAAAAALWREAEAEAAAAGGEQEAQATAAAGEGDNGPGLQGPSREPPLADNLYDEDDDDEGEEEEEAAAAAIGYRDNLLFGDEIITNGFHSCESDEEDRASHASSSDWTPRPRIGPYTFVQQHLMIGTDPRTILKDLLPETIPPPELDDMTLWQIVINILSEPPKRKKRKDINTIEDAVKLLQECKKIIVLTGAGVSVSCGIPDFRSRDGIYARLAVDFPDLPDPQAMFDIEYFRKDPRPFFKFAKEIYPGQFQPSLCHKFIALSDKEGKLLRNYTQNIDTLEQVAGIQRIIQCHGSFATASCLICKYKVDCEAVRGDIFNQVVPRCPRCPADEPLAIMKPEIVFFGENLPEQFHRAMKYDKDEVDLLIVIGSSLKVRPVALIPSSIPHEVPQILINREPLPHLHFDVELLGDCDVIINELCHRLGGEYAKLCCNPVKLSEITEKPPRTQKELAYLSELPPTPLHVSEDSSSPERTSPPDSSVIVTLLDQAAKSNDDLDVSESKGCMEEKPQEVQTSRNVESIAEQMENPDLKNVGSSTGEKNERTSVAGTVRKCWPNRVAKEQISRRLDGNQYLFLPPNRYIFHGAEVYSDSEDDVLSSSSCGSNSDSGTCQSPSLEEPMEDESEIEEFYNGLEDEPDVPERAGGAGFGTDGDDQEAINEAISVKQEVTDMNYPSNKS
Description: Lines represent non-linear least-squares fits to the Michaelis-Menten equation. […] Lines represent non-linear least-squares fits to the Michaelis-Menten equation. […] Error bars are standard errors of the mean.
To identify compounds that modulate SIRT1 activity, a number of small molecule libraries were screened using a fluorescent deacetylation assay in 96-well plates^26. The substrate used in the assay was a fluorogenic peptide based on the sequence encompassing the p53-K382 acetylation site, a known target of SIRT1 in vivo^20,21,27. […] The small molecule libraries included analogues of nicotinamide, ε-acetyl lysine, NAD^+, nucleotides, nucleotide analogues and purinergic ligands.
His6-tagged recombinant SIRT1 and GST-tagged recombinant Sir2 were prepared as previously described^26. From 0.1 to 1 μg of SIRT1 and 1.5 μg of Sir2 were used per deacetylation assay (in 50 μl total reaction) as previously described^26.
Themed compound libraries (BIOMOL) were used for primary and secondary screening. Most polyphenol compounds were dissolved at 10 mM in dimethylsulfoxide (DMSO) on the day of the assay. For water soluble compounds and negative controls, 1% v/v DMSO was added to the assay. […] Unless otherwise indicated all initial rate measurements were means of three or more replicates, obtained with single incubation times, at which point 5% or less of the substrate initially present had been deacetylated. Calculation of net fluorescence increases included subtraction of a blank value, which in the case of Sir2 was obtained by omitting the enzyme from the reaction and in the case of SIRT1 by adding an inhibitor (200 μM suramin or 1 mM nicotinamide) to the reaction prior to the acetylated substrate. […] All error bars represent the standard error of the mean.

[2] = tested on: S. cerevisiae; experiment: Yeast replicative lifespan; assay type: cell-based; conditions: for % change in yeast replicative lifespan relative to untreated organisms (10 μM): 2% (w/v) glucose YPD, untreated 100%; for Average lifespan: 10 μM compound, 2% glucose medium, wild type untreated 22.9
Description: Average lifespan for wild type, 22.9 generations, quercetin, 23.4; piceatannol. […]
All yeast strains were grown at 30° C. in complete yeast extract/bactopeptone, 2.0% (w/v) glucose (YPD) medium except where stated otherwise. Calorie restriction was induced in 0.5% glucose. Synthetic complete (SC) medium consisted of 1.67% yeast nitrogen base, 2% glucose, 40 mg/litre each of auxotrophic markers. SIR2 was integrated in extra copy and disrupted as described^5. Other strains are described elsewhere^26. For cellular deacetylation assays, HeLa S3 cells were used. U20S osteosarcoma and human embryonic kidney (HEK 293) cells were cultured adherently in Dulbecco's Modified Eagle's Medium (DMEM) containing 10% fetal calf serum (FCS) with 1.0% glutamine and 1.0% penecillin/streptomycin. HEK 293 overexpressing dominant negative SIRT1 H363Y was a gift of R. Frye (U. Pittsburgh).
Lifespan measurements were performed using PSY316AT MATα as previously described^35. All compounds for lifespan analyses were dissolved in 95% ethanol and plates were dried and used within 24 hours. Prior to lifespan analysis, cells were pre-incubated on their respective media for at least 15 hours. Following transfer to a new plate, cells were equilibrated on the medium for a minimum of 4 hours prior to micro-manipulating them. At least 30 cells were examined per experiment and each experiment was performed at least twice. Statistical significance of lifespan differences was determined using the Wilcoxon rank sum test. Differences are stated to be significant when the confidence is higher than 95%.

[3] = tested on: Human 293; experiment: Survival of 293 cells; conditions: 50 micromolar
Description: The number of live cells each time point was counted using a Coulter counter.

[4] = tested on: HDAC; conditions: in vitro or in vivo, literature; cited from earlier work
[5] = biological target: T2, SIRT1 deacetylase (BIOMOL) (Homo sapiens, UniProt Q96EB6); experiment: High-throughput SIRT1 screening protocol (ICCB library); assay type: biochemical; conditions: positive controls; 200 μM NAD+, 5 μM Fluor de Lys-SIRT1; resveratrol 50 μM
T2 construct: purchased BIOMOL
T2 sequence (Q96EB6 1-747): T1 sequence (Q96EB6 1-747)
Description: The reaction mixture contains (final): 0.5 units/reaction SIRT1 deacetylase (BIOMOL); 200 μM NAD^+; 5 μM Fluor de Lys-SIRT1 substrate (BIOMOL); buffer (25 mM Tris/Cl, pH 8.0, 137 mM NaCl, 2.7 mM KCl, 1 mM MgCl2, and 1 mg/ml BSA). In addition, a reaction mixture containing no enzyme was made so that each well receiving compound has a corresponding “no enzyme control” well. Reactions were performed in black 384 well plates (NUNC) in a final volume of 25 μl/well.
The reactions were started by combining enzyme and substrate in a reaction mixture immediately prior to aliquoting in plates (or substrate only for “no enzyme control” plates). Mixture were aliquoted to plates using Biotek μfill (Biotek Instruments). Control mixtures were manually added to designated wells. A library compound was added at a desired concentration by pin transfer to both “with enzyme” and “no enzyme” plates. Compounds were added in at least triplicate (with enzyme reaction in duplicate and no enzyme controls) at a final concentration of roughly 50 μM. The plates were incubated at 37° C for 30-60 minutes. Then 25 μl of 1× Developer II (BIOMOL) plus 2 mM nicotinamide were added to all wells to stop the reactions. The reactions were left for at least 30 minutes at 37° C. for the signal to develop. The plates were read in a microplate-reading fluorometer capable of excitation at a wavelength in the range of 350-380 nm and detection of emitted light in the range of 440-460 nm. A read time of 0.1 sec per well was used.

[6] = tested on: D. melanogaster; experiment: D. melanogaster lifespan; assay type: in vivo
Description: Females (a) and males (b) with loss-of-function genotype dSir2^4.5/dSir2^5.26. Females (c) and males (d) with strong hypomorphic genotype dSir2^17/dSir2^KG00871.
Survival assays were conducted independently with adult D. melanogaster in two laboratories. In the first laboratory, all trials used an yw marked wild-type strain. Larvae were reared on standard cornmeal-sugar-yeast (CSY) agar diet (cornmeal 5%, sucrose 10.5%, SAF yeast 2%, and agar 0.7%). Newly eclosed adults were placed in 1 L demography cages with approximately 75 males and 75 females. Three to four replicate 1 L demography cages were used for each treatment group in each trial. Every two days, dead flies were removed and scored, and food vials were replenished. Food vials contained cornmeal-sugar-yeast diet with SAF yeast as either 2% or 3% by weight. Test compounds in 100 μl of EtOH (or blank EtOH in controls) were mixed into melted aliquots of the adult food media to make a final concentration of 0, 10 or 100 μM. Fresh stock solutions and adult media were prepared weekly. In the second laboratory, lifespan trials were conducted with the wild type strain Canton-S, dSir2^4.5 and dSir2^5.26 (S. Smolik, University of Oregon), dSir2^17 (S. Astrom, Stockholm University, Sweden), and dSir2^KG00871 (Drosophila Stock Center, Bloomington, Ind.). Larvae for all tests were reared on standard cornmeal-sugar-yeast diet. Newly eclosed adults were incubated in plastic shell vials containing 5 ml of 15% sugar-yeast diet (15% SY) or 5% sugar-yeast (5% SY) diet (15% SY: 15% yeast, 15% sucrose, 2% agar; 5% SY: 5% yeast, 5% sucrose, 2% agar as per Ref. ^20). In all trials, ˜20 males with ˜20 females were placed into each of 10 vials/treatment group. Every two days, flies were passed into new vials and dead flies were counted. […] Final compound concentrations were 0, 10, 100 or 200 μM. Fresh stock solution and adult media was prepared weekly.

5,7,4′-Trihydroxyflavanone [genistein]
SIRT1 stimulating activity (in words) [1]: absence of activity

Oc1cc(O)cc(/C=C/c2ccc(F)cc2)c1 [BML-212, 3,5-Dihydroxy-4′-fluoro-trans-stilbene]
% change in yeast replicative lifespan relative to untreated organisms (10 μM) ([2]; 10 μM): 98%

Oc1cc(O)cc(/C=C/c2ccc(Cl)cc2)c1 [BML-217, 3,5-Dihydroxy-4′-chloro-trans-stilbene]
% change in yeast replicative lifespan relative to untreated organisms (10 μM) ([2]; 10 μM): 90% | SIRT1 stimulating activity (in words) [1]: did the least to decrease activity; also recorded: did not significantly diminish the SIRT1 activating effect

O=C(Nc1cc(O)cc(O)c1)c1ccccc1 [BML-219, N-(3,5-Dihydroxyphenyl)benzamide]
SIRT1 stimulating activity (in words) [1]: abolished activity

Oc1cc(O)cc(/C=C/C2CCCCC2)c1 [BML-224]
SIRT1 stimulating activity (in words) [1]: nearly as detrimental to SIRT1 stimulating activity

CCc1ccc(/C=C/c2cc(O)cc(O)c2)cc1 [BML-225]
Survival of 293 cells ([3]; 0 h): 100% | Survival of 293 cells ([3]; 48 h): 5% | Survival of 293 cells ([3]; 96 h): 8%

Cc1ccc(/C=C/c2cc(O)cc(O)c2)cc1 [BML-228]
Survival of 293 cells ([3]; 0 h): 100% | Survival of 293 cells ([3]; 48 h): 46% | Survival of 293 cells ([3]; 96 h): 32% | SIRT1 stimulating activity (in words) [1]: did the least to decrease activity

CSc1ccc(/C=C/c2cc(O)cc(O)c2)cc1 [BML-230]
Survival of 293 cells ([3]; 0 h): 100% | Survival of 293 cells ([3]; 48 h): 55% | Survival of 293 cells ([3]; 96 h): 57% | toxicity on 293 cells (in words) ([3]; 96 hours): least toxic on 293 cells | v1/v2, ratio of BML-230-stimulated to resveratrol-stimulated SIRT1 rate ([1]; R at 500 μM): ≤ 1.4 | BML-230-stimulated SIRT1 activity compared with resveratrol ([1]; dose response, 25 μM each NAD+ and p53-382 peptide, 20 min): exceeds that stimulated by resveratrol at all concentrations tested | dissociation constant of SIRT1/activator complex (comparison) ([1]; inferred from two state model, FIG. 9b): lower dissociation constant than SIRT1/resveratrol

O=C(/C=C/c1cccc(C(=O)NO)c1)NO [CBHA, m-carboxy-cinnamic acid bishydroxamic acid]
HDAC inhibition (in words) [4]: micromolar concentration or lower

C/C=C1\NC(=O)[C@H]2CSSCC/C=C/[C@H](CC(=O)N[C@H](C(C)C)C(=O)N2)OC(=O)[C@H](C(C)C)NC1=O [Depsipeptide]
HDAC inhibition (in words) [4]: micromolar concentrations

NC(=O)c1cccnc1 [Nicotinamide, nicotinamide]
SIRT1 Vmax decrease ([1]; 50 μM nicotinamide, absence of resveratrol, NAD+ or acetylated peptide varied): 30% and 36%

Oc1cc(O)cc(/C=C/c2ccccc2)c1 [Pinosylvin, 3,5-Dihydroxy-trans-stilbene]
% change in yeast replicative lifespan relative to untreated organisms (10 μM) ([2]; 10 μM): 114% | activated SIRT1 [5]: 3.28 fold | SIRT1 stimulating activity (in words) [1]: did the least to decrease activity | SIRT1 stimulating activity (in words) ([1]; listed as pinosylvin): did not significantly diminish the SIRT1 activating effect

O=c1c(O)c(-c2ccc(O)c(O)c2)oc2cc(O)ccc12 [fisetin, 3,7,3′,4′-Tetrahyddroxyflavone]
increase of average lifespan ([2]; 10 μM): 55% | maximum lifespan (in words) ([2]; 10 μM): significantly increased maximum lifespan | Average lifespan [2]: 30.0 generations | longevity on restricted diet ([6]; restricted diet): neither resveratrol nor fisetin further increased longevity | lifespan extended (maximum) ([6]; wild type Canton-S and yw, males and females, normal diet): up to 23%

Oc1cc(O)cc(/C=C/c2ccc(O)c(O)c2)c1 [piceatannol, 3,5,3′,4′-Tetrahydroxy-trans-stilbene]
effect on lifespan (in words) ([2]; 10 μM): no significant effect on lifespan | Average lifespan [2]: 24.0 generations | stimulated SIRT1 activity ([1]; initial library screen, fluorogenic p53-K382 peptide (Table 1)): eight

O=c1c(O)c(-c2ccc(O)c(O)c2)oc2cc(O)cc(O)c12 [quercetin, 3,5,7,3′,4′-Pentahydroxyflavone]
effect on lifespan (in words) ([2]; 10 μM): no significant effect on lifespan | Average lifespan [2]: 23.4 generations

depudecin
HDAC inhibition (in words) [4]: micromolar concentrations

trichostatin A [TSA]
HDAC inhibition (in words) [4]: potent inhibitor of mammalian HDAC
